# Measurements from BindingDB's records for doi:10.1021/jm401604x (University of Auckland, 2014).
# Experiment: Inhibition of recombinant perforin (unknown origin)-mediated lysis of human [51Cr]-labelled Jurkat cells assessed as release of [51Cr] preincubated for 30 mins followed by addition of cells measured after 4 hrs by gamma counting analysis
row,IC50,Compound
1,> 20 µM,CN1CCN(CCCN2Cc3cc(-c4ccc(/C=C5/NC(=S)NC5=O)s4)ccc3C2=O)CC1
2,> 20 µM,O=C1NC(=S)N/C1=C/c1ccc(-c2ccccc2)s1
3,> 20 µM,O=C1NC(=S)N/C1=C/c1ccc(-c2ccc(C(=O)NCCN3CCOCC3)cc2)s1
4,> 20 µM,O=C1NC(=S)N/C1=C/c1ccc(-c2ccccc2Cl)s1
5,> 20 µM,O=C1NC(=S)N/C1=C/c1ccc(-c2ccc(C(=O)N3CCOCC3)cc2)s1
6,> 20 µM,CN(C)CCCN1Cc2cc(-c3ccc(/C=C4/NC(=S)NC4=O)s3)ccc2C1=O
